Experimental data taken from patent US4918067A, “Heterocyclic substituted penicillin antibiotics” (Beecham Group p.l.c., priority 1986, dated 1990).

Legend:
Assay type in all cases: cell-based
H. influenzae Ql = assay: in vitro MIC against H. influenzae Ql; details: Haemophilus influenzae
Method: (§1) The compound of the Example was tested in vitro against a number of microorganisms.

H. influenzae NEMCl = assay: in vitro MIC against H. influenzae NEMCl; details: Haemophilus influenzae
Method: as §1

E. Coli ESS = assay: in vitro MIC against E. Coli ESS; details: Escherichia coli
Method: as §1

B. catarrhalis Ravasio = assay: in vitro MIC against B. catarrhalis Ravasio; details: Moraxella catarrhalis
Method: as §1

S. aureus Oxford = assay: in vitro MIC against S. aureus Oxford; details: Staphylococcus aureus
Method: as §1

S. aureus Russell = assay: in vitro MIC against S. aureus Russell; details: Staphylococcus aureus
Method: as §1

S. aureus MB9 = assay: in vitro MIC against S. aureus MB9; details: Staphylococcus aureus
Method: as §1

S. epidermidis PHLN20 = assay: in vitro MIC against S. epidermidis PHLN20; details: Staphylococcus epidermidis
Method: as §1

S. pyogenes CN10 = assay: in vitro MIC against S. pyogenes CN10; details: Streptococcus pyogenes
Method: as §1

S. agalacticae 2798 = assay: in vitro MIC against S. agalacticae 2798
Method: as §1

S. pneumoniae 1761 = assay: in vitro MIC against S. pneumoniae 1761; details: Streptococcus pneumoniae
Method: as §1

In the case of CC1(C)S[C@@H]2[C@H](NC(=O)/C(=N\OC3CCCCC3)c3cccc(N)n3)C(=O)N2[C@H]1C(=O)O [Example 1, Sodium 6-β-[2-(2-aminopyridin-6-yl) 2-(Z)-cyclohexyl-oxiyminoacetamido]penicillinate], the MIC (H. influenzae Ql) is reported as 1 µg/mL, the MIC (H. influenzae NEMCl) is reported as 1 µg/mL and the MIC (E. Coli ESS) is reported as 0.12 µg/mL. For the same compound, the MIC (B. catarrhalis Ravasio) was 0.5 µg/mL, the MIC (S. aureus Oxford) was 0.5 µg/mL and the MIC (S. aureus Russell) was 0.5 µg/mL. For the same compound, the MIC (S. aureus MB9) was 2 µg/mL, the MIC (S. epidermidis PHLN20) was 0.5 µg/mL and the MIC (S. pyogenes CN10) was under 0.03 µg/mL. It also gave an MIC (S. agalacticae 2798) of 0.25 µg/mL and an MIC (S. pneumoniae 1761) of under 0.03 µg/mL.
